Consider 32 compounds from US20120264735A1 (priority 2009, published 2012).

Molecules are shown by their SMILES. Some results are limits rather than exact numbers.

In this experiment the target is T1, c-Met kinase (recombinant c-Met) (Homo sapiens, UniProt P08581).
T1 construct: 0.27 nM recombinant c-Met
T1 sequence (P08581 25-1390): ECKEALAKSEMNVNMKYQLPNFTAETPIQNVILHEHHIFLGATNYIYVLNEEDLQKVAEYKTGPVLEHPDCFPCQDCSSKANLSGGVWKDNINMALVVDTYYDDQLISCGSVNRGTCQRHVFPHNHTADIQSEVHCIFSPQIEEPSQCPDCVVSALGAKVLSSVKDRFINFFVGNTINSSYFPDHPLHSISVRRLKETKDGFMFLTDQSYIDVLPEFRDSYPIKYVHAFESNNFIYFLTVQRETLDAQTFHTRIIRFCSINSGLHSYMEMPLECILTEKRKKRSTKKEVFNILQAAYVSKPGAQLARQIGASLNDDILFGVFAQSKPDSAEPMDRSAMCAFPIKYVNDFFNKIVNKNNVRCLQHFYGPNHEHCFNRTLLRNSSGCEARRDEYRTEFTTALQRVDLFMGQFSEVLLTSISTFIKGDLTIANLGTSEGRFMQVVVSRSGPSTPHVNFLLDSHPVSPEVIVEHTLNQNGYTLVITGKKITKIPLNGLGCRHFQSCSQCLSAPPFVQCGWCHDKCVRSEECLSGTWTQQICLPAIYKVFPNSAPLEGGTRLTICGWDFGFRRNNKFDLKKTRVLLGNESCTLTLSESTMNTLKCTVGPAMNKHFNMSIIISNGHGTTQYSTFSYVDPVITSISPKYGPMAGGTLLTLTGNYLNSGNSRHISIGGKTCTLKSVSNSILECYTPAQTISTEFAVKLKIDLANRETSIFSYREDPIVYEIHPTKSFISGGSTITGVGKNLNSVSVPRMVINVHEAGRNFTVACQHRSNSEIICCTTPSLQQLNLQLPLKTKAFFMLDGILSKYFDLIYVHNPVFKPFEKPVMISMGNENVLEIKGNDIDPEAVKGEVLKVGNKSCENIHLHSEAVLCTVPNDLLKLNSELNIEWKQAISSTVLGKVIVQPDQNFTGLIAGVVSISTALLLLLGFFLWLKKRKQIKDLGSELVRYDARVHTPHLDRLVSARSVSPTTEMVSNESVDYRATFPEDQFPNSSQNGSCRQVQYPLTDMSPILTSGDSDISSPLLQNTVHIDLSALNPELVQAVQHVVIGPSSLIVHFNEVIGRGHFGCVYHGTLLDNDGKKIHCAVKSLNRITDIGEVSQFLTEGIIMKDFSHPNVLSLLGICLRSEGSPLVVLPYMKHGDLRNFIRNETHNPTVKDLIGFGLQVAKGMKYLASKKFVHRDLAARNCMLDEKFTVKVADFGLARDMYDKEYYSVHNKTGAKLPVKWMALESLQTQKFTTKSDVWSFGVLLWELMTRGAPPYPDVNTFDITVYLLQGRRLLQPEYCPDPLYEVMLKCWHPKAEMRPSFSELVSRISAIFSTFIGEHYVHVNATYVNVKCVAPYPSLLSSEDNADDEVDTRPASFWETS
Briefly: In vitro kinase assay I (homogeneous time-resolved fluorescence tyrosine kinase assay). In kind it is biochemical. The procedure, abridged: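 Biotinylated peptide (0.5 μM) phosphorylated by 0.2 nM recombinant c-Met with 50 μM MgATP, 60 min at room temperature, pH 7.4, 5% DMSO. EDTA stop; HTRF read with Eu-anti-phosphotyrosine antibody and streptavidin-APC. IC50 from 4-parameter logistic fit.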
Take `CCn1cc(-n2ccc(=O)c(Cc3cccc(-c4ncc(OCC5CCO5)cn4)c3)n2)cn1` (racemic) [Example 308, rac-1-(1-ethyl-1H-pyrazol-4-yl)-3-{3-[5-(oxetan-2-ylmethoxy)pyrimidin-2-yl]benzyl}pyridazin-4(1H)-one]: the IC50 (in general, the concentration that inhibits the measured activity by half) was less than 100 nM.
For the compound `CN(C)C/C=C/c1cnc(-c2cccc(Cc3nn(-c4cnn(C)c4)ccc3=O)c2)nc1` [Example 403, 3-(3-{5-[(1E)-3-(dimethylamino)prop-1-en-1-yl]pyrimidin-2-yl}benzyl)-1-(1-methyl-1H-pyrazol-4-yl)pyridazin-4(1H)-one], the IC50 is less than 100 nM.
Consider `Cn1cc(-n2ccc(=O)c(Cc3cccc(-c4ncc(CN5CCC(F)C5)cn4)c3)n2)cn1` (racemic) [Example 431, rac-3-(3-{5-[(3-fluoropyrrolidin-1-yl)methyl]pyrimidin-2-yl}benzyl)-1-(1-methyl-1H-pyrazol-4-yl)pyridazin-4(1H)-one], for which the IC50 was less than 100 nM.
Then `CCn1cc(-n2ccc(=O)c(C(C)c3cccc(-c4ncc(OCC5CCN(C(=O)OC(C)(C)C)CC5)cn4)c3)n2)cn1` (single isomer, unassigned) [Example 291, tert-butyl 4-({[2-(3-{(1R or S)-1-[1-(1-ethyl-1H-pyrazol-4-yl)-4-oxo-1,4-dihydropyridazin-3-yl]ethyl}phenyl)pyrimidin-5-yl]oxy}methyl)piperidine-1-carboxylate], with less than 100 nM; and `COc1ccnc2ccc(Cc3nn(-c4cnn(C)c4)ccc3=O)cc12` [Example 142, 3-[(4-methoxyquinolin-6-yl)methyl]-1-(1-methyl-1H-pyrazol-4-yl)pyridazin-4(1H)-one], with 100 to 1000 nM.
As for `Cn1cc(-n2ccc(=O)c(Cc3cccc(-c4ncc(-c5cn[nH]c5)cn4)c3)n2)cn1` [Example 410, 1-(1-methyl-1H-pyrazol-4-yl)-3-{3-[5-(1H-pyrazol-4-yl)pyrimidin-2-yl]benzyl}pyridazin-4(1H)-one], the figure is less than 100 nM.
On to `CCn1cc(-n2ccc(=O)c(Cc3cccc(-c4ncc(OCC(C)(C)O)cn4)c3)n2)cn1` [Example 359, 1-(1-ethyl-1H-pyrazol-4-yl)-3-{3-[5-(2-hydroxy-2-methylpropoxy)pyrimidin-2-yl]benzyl}pyridazin-4(1H)-one], for which the concentration for half-maximal inhibition (IC50) is less than 100 nM.
Then `COCCOC(=O)Nc1cccc(Cc2nn(-c3cn[nH]c3)ccc2=O)c1` [Example 196, 2-methoxyethyl (3-{[4-oxo-1-(1H-pyrazol-4-yl)-1,4-dihydropyridazin-3-yl]methyl}phenyl)carbamate], with less than 100 nM; and `O=c1ccn(-c2ccc(F)c(F)c2)nc1Cc1cccc(-c2ncc(OCC3CCOC3)cn2)c1` (racemic) [Example 328, rac-1-(3,4-difluorophenyl)-3-{3-[5-(tetrahydrofuran-3-ylmethoxy)pyrimidin-2-yl]benzyl}pyridazin-4(1H)-one], with less than 100 nM; and `CC(c1cccc(-c2ncc(O[C@@H]3CCNC[C@H]3F)cn2)c1)c1nn(-c2cnn(C)c2)ccc1=O` (single isomer, unassigned) [Example 343, 3-{(1R or S)-1-[3-(5-{[(3R or S, 4R or S)-3-fluoropiperidin-4-yl]oxy}pyrimidin-2-yl)phenyl]ethyl}-1-(1-methyl-1H-pyrazol-4-yl)pyridazin-4(1H)-one], with 100 to 1000 nM.
Then `Cn1cc(-n2ccc(=O)c(Cc3cccc(-c4ncc(O[C@H]5CCC[C@@H]5O)cn4)c3)n2)cn1` (single isomer, unassigned) [Example 379], with less than 100 nM.
As for `CC(Oc1cnc(-c2cccc(Cc3nn(-c4cnn(C)c4)ccc3=O)c2)nc1)C(C)(C)O` (racemic) [Example 366, rac-3-{3-[5-(2-hydroxy-1,2-dimethylpropoxy)pyrimidin-2-yl]benzyl}-1-(1-methyl-1H-pyrazol-4-yl)pyridazin-4(1H)-one], the figure is less than 100 nM.
Turning to `Cn1cc(-n2ccc(=O)c(Cc3cccc(NC(=O)OCC4(F)CCOCC4)c3)n2)cn1` [Example 613, (4-fluorotetrahydro-2H-pyran-4-yl)methyl (3-{[1-(1-methyl-1H-pyrazol-4-yl)-4-oxo-1,4-dihydropyridazin-3-yl]methyl}phenyl)carbamate], the IC50 was less than 100 nM.
As for `CCOCCOc1cnc(-c2cccc(Cc3nn(-c4cc(F)c(F)c(F)c4)ccc3=O)c2)nc1` [Example 325, 3-{3-[5-(2-ethoxyethoxy)pyrimidin-2-yl]benzyl}-1-(3,4,5-trifluorophenyl)pyridazin-4(1H)-one], the figure is less than 100 nM; as for `CN1CCN(CCCNC(=O)c2cnc(-c3cccc(Cc4nn(-c5cnn(C)c5)ccc4=O)c3)nc2)CC1` [Example 479, N-[3-(4-methyl-piperazin-1-yl)propyl]-2-(3-{[1-(1-methyl-1H-pyrazol-4-yl)-4-oxo-1,4-dihydro-pyridazin-3-yl]methyl}phenyl)pyrimidine-5-carboxamide], less than 100 nM; as for `CC(C)COC(=O)Nc1cccc(Cc2nn(-c3cnn(CC(=O)O)c3)ccc2=O)c1` [Example 181, {4-[3-(3-{[(2-methylpropoxy)carbonyl]amino}benzyl)-4-oxopyridazin-1(4H)-yl]-1H-pyrazol-1-yl}acetic acid], less than 100 nM.
As for `Cn1cc(-n2ccc(=O)c(Cc3cccc(-c4ncc(C(=O)NCC(F)(F)F)cn4)c3)n2)cn1` [Example 481, 2-(3-{[1-(1-methyl-1H-pyrazol-4-yl)-4-oxo-1,4-dihydro-pyridazin-3-yl]methyl}phenyl)-N-(2,2,2-trifluoroethyl)pyrimidine-5-carboxamide], the figure is less than 100 nM; as for `CCOc1cnc2ccc(C(C)c3nn(-c4cnn(CC)c4)ccc3=O)cc2c1` (single isomer, unassigned) [Example 226, 3-[(1S or R)-1-(3-ethoxyquinolin-6-yl)ethyl]-1-(1-ethyl-1H-pyrazol-4-yl)pyridazin-4(1H)-one], 100 to 1000 nM.
Then `CC(C)COC(=O)Nc1cccc(Cc2nn(-c3ccc(-c4cccnc4)cc3)ccc2=O)c1` [Example 727, 2-Methylpropyl[3-({4-oxo-1-[4-(pyridin-3-yl)phenyl]-1,4-dihydropyridazin-3-yl}methyl)phenyl]carbamate], with less than 100 nM; and `CCn1cc(-n2ccc(=O)c(Cc3cccc(-c4ncc(OCCN5CCOCC5)cn4)c3)n2)cn1` [Example 312, 1-(1-ethyl-1H-pyrazol-4-yl)-3-{3-[5-(2-morpholin-4-ylethoxy)pyrimidin-2-yl]benzyl}pyridazin-4(1H)-one], with less than 100 nM; and `CN1CCN(CCCOC(=O)Nc2cccc(Cc3nn(-c4cc(F)cc(F)c4)ccc3=O)c2)CC1` [Example 518], with less than 100 nM.
Turning to `COC(C)(C)Cn1cnc(-c2cccc(Cc3nn(-c4cnn(C)c4)ccc3=O)c2)n1` [Example 719, 3-{3-[1-(2-methoxy-2-methylpropyl)-1H-1,2,4-triazol-3-yl]benzyl}-1-(1-methyl-1H-pyrazol-4-yl)pyridazin-4(1H)-one], the IC50 is less than 100 nM.
Turning to `Cn1cc(-n2ccc(=O)c(Cc3cccc(-c4ncc(-n5cnnc5)cn4)c3)n2)cn1` [Example 473, 1-(1-Methyl-1H-pyrazol-4-yl)-3-{3-[5-(4H-1,2,4-triazol-4-yl)pyrimidin-2-yl]benzyl}pyridazin-4(1H)-one], the IC50 was less than 100 nM.
For `CCOc1cnc(-c2cccc(Cc3nn(-c4ccc(C#N)cc4)ccc3=O)c2)nc1` [Example 137, 4-{3-[3-(5-ethoxypyrimidin-2-yl)benzyl]-4-oxopyridazin-1(4H)-yl}benzonitrile], the IC50 is less than 100 nM.
For `CC(C)COC(=O)Nc1cccc(Cc2nn(-c3ccc(-c4ccncc4)cc3)ccc2=O)c1` [Example 728, 2-methylpropyl (3-({4-oxo-1-(4-(pyridin-4-yl)phenyl)-1,4-dihydropyridazin-3-yl}methyl}phenyl) carbamate], the IC50 is less than 100 nM.
For the compound `Cn1cc(-n2ccc(=O)c(Cc3cccc(-c4ncc(OCC5(F)COC5)cn4)c3)n2)cn1` [Example 272, 3-(3-{5-[(3-fluorooxetan-3-yl)methoxy]pyrimidin-2-yl}benzyl)-1-(1-methyl-1H-pyrazol-4-yl)pyridazin-4(1H)-one], the IC50 is less than 100 nM.
Then `CCn1cc(-n2ccc(=O)c(C(C)c3cccc(-c4ncc(COC)cn4)c3)n2)cn1` (single isomer, unassigned) [Example 217, 1-(1-ethyl-1H-pyrazol-4-yl)-3-((1S or R)-1-{3-[5-(methoxymethyl)pyrimidin-2-yl]phenyl}ethyl)pyridazin-4(1H)-one], with 100 to 1000 nM; and `CCn1cc(-n2ccc(=O)c(C(C)c3cccc(-c4ncc(OC5CNC5)cn4)c3)n2)cn1` (single isomer, unassigned) [Example 340, 3-((1R or S)-1-{3-[5-(azetidin-3-yloxy)pyrimidin-2-yl]phenyl}ethyl)-1-(1-ethyl-1H-pyrazol-4-yl)pyridazin-4(1H)-one], with less than 100 nM; and `Cn1cc(-n2ccc(=O)c(Cc3cccc(-c4ncn(CC5CCOC5)n4)c3)n2)cn1` (racemic) [Example 79, rac-1-(1-methyl-1H-pyrazol-4-yl)-3-{3-[1-(tetrahydrofuran-3-ylmethyl)-1H-1,2,4-triazol-3-yl]benzyl}pyridazin-4(1H)-one], with less than 100 nM.
As for `CC(C)COC(=O)Nc1cccc(Cc2nn(-c3cnn(CCC(=O)O)c3)ccc2=O)c1` [Example 182, 3-{4-[3-(3-{[(2-methylpropoxy)carbonyl]amino}benzyl)-4-oxopyridazin-1(4H)-yl]-1H-pyrazol-1-yl}propanoic acid], the figure is less than 100 nM; as for `N#Cc1cccc(-n2ccc(=O)c(Cc3cccc(NC(=O)OCCN4CCOCC4)c3)n2)c1` [Example 597, 2-morpholin-4-ylethyl (3-{[1-(3-cyanophenyl)-4-oxo-1,4-dihydropyridazin-3-yl]methyl}phenyl)carbamate], less than 100 nM.
`Cn1cc(-n2ccc(=O)c(Cc3cccc(-c4ncn(CC5(C)COC5)n4)c3)n2)cn1` [Example 713, 3-(3-{1-[(3-methyloxetan-3-yl)methyl]-1H-1,2,4-triazol-3-yl}benzyl)-1-(1-methyl-1H-pyrazol-4-yl)pyridazin 4(1H)-one]: the IC50 lay in the range of 100 to 1000 nM.
